Measurements reported in patent publication US20050202511A1, “AMP-activated protein kinase (AMPK) inhibitor screening assay” (priority 2002, published 2005).
“And” between values parts separate entries of the source, which are not always exact repeats. Equal entries are not always repeated.

Key:
AMPK-γ2 CBS1-2 (R302Q) = molecular target: T1, AMPK-γ2 CBS1-2 (R302Q) (Homo sapiens, UniProt Q9UGJ0, R302Q); assay: Filter binding assay, GST-CBS domain fusion; conditions: for Kd: single-site model
T1 construct: the N-terminal pair (CBS1-2, residues 274-410); made in house; host or cells: E. coli BL21 (DE3)
Source text: Site-directed mutagenesis was used to create the point mutation in CBS1 that causes hereditary heart disease (R302Q).
(§1) The present inventors also used site-directed mutagenesis to create four of the mutations in CBS1-2 that cause WPWS, i.e. R302Q, H383R and T400N, and Lins (which inserts a leucine residue in the linker between CBS1 and CBS2).
(§2) Various concentrations of [^14C]-AMP, [γ^32P] […] Reactions were stopped by spotting 10 ìl onto a Millipore MF Filter Membrane disc and rapidly washing under high vacuum with 1 ml of ice-cold TBS. Radioactivity was determined on the filters by scintillation counting. Non-specific binding (which was trivial) was determined by performing the assay with GST as a control, and was subtracted. […] Data were fitted to the binding models given in the text, using GraphPad Prism 3. Estimates of parameters resulting from fits are quoted in the text and Table 1±standard error, and the curves shown in figures are theoretical curves obtained using those estimates.

AMPK-γ2 CBS1-2 (H383R) = molecular target: T2, AMPK-γ2 CBS1-2 (H383R) (Homo sapiens, UniProt Q9UGJ0, H383R); assay: Filter binding assay, GST-CBS domain fusion; conditions: for Kd: single-site model
T2 construct: the N-terminal pair (CBS1-2, residues 274-410); made in house; host or cells: E. coli BL21 (DE3)
Method: as §1, §2

AMPK-γ2 CBS1-2 (Lins) = molecular target: T3, AMPK-γ2 CBS1-2 (Lins) (Homo sapiens, UniProt Q9UGJ0, INS350L); assay: Filter binding assay, GST-CBS domain fusion; conditions: single-site model
T3 construct: fused on or other part: GST at the N-terminus followed by a hexaglycine spacer (pGEX-KG)
Method: as §1, §2

AMPK-γ2 CBS1-2 (T400N) = molecular target: T4, AMPK-γ2 CBS1-2 (T400N) (Homo sapiens, UniProt Q9UGJ0, T400N); assay: Filter binding assay, GST-CBS domain fusion; conditions: for Kd: single-site model
T4 construct: the N-terminal pair (CBS1-2, residues 274-410); made in house; host or cells: E. coli BL21 (DE3)
Method: as §1, §2

AMPK-γ2 CBS3-4 (WT) = molecular target: T5, AMPK-γ2 CBS3-4 (WT) (Homo sapiens, UniProt Q9UGJ0); assay: Filter binding assay, GST-CBS domain fusion; conditions: single-site model
T5 construct: the C-terminal pair (CBS3-4, residues 430-556); made in house; host or cells: E. coli BL21 (DE3)
Source text: (§3) The boundaries of the CBS domains were taken from the alignments by Bateman. Using a plasmid encoding human γ2 as the template, PCR was used to produce DNAs encoding all four CBS domains (CBS1-4, residues 274-569), the N-terminal pair (CBS1-2, residues 274-410) or the C-terminal pair (CBS3-4, residues 430-556). The PCR primers had been designed to create BamHI and XhoI sites at the ends, and these were used to insert them into a vector that created a fusion protein with glutathione-S-transferase at the N-terminal end followed by a hexaglycine spacer, with the CBS domains at the C-terminus. All three constructs were expressed in E. coli and could be purified on glutathione-Sepharose as soluble proteins of the expected sizes in good yield (CBS1-4, 61 kDa, 5 mg/L of culture; CBS1-2, 43 kDa, 2 mg/L; CBS3-4, 43 kDa, 2 mg/L).
(§4) Site-directed mutagenesis was also used to create a point mutation in CBS4 that causes hereditary heart disease (WPWS) (R531G).
Various concentrations of [^14C]-AMP, [γ^32P] […] Reactions were stopped by spotting 10 ìl onto a Millipore MF Filter Membrane disc and rapidly washing under high vacuum with 1 ml of ice-cold TBS. Radioactivity was determined on the filters by scintillation counting. Non-specific binding (which was trivial) was determined by performing the assay with GST as a control, and was subtracted. […]

AMPK-γ2 CBS3-4 (R531G) = molecular target: T6, AMPK-γ2 CBS3-4 (R531G) (Homo sapiens, UniProt Q9UGJ0, R531G); assay: Filter binding assay, GST-CBS domain fusion; conditions: for Kd: single-site model
T6 construct: the C-terminal pair (CBS3-4, residues 430-556); made in house; host or cells: E. coli BL21 (DE3)
Method: as §4, §2

AMPK-γ2 CBS1-4 (WT) = molecular target: T7, AMPK-γ2 CBS1-4 (WT) (Homo sapiens, UniProt Q9UGJ0); assay: Filter binding assay, GST-CBS domain fusion; conditions: for Kd: two site Hill plot model, read-out: B0.5 (concentration giving half-maximal binding)
T7 construct: all four CBS domains (CBS1-4, residues 274-569); made in house; host or cells: E. coli BL21 (DE3)
Source text: as §3
(§5) With the H383R, T400N and R531G mutants there were large increases in B0.5 (6-, 8- and 10-fold) with no significant change in Hill coefficient.
as §2

AMPK-γ2 CBS1-4 (H383R) = molecular target: T8, AMPK-γ2 CBS1-4 (H383R) (Homo sapiens, UniProt Q9UGJ0, H383R); assay: Filter binding assay, GST-CBS domain fusion; conditions: for Kd: two site Hill plot model, read-out: B0.5
T8 construct: all four CBS domains (CBS1-4, residues 274-569); made in house; host or cells: E. coli BL21 (DE3)
Method: as §5, §2

AMPK-γ2 CBS1-4 (Lins) = molecular target: T9, AMPK-γ2 CBS1-4 (Lins) (Homo sapiens, UniProt Q9UGJ0, INS350L); assay: Filter binding assay, GST-CBS domain fusion; conditions: for Kd: two site Hill plot model, read-out: B0.5
T9 construct: fused on or other part: GST at the N-terminus followed by a hexaglycine spacer (pGEX-KG)
Method: as §5, §2

AMPK-γ2 CBS1-4 (R302Q) = molecular target: T10, AMPK-γ2 CBS1-4 (R302Q) (Homo sapiens, UniProt Q9UGJ0, R302Q); assay: Filter binding assay, GST-CBS domain fusion; conditions: for Kd: two site Hill plot model, read-out: B0.5
T10 construct: all four CBS domains (CBS1-4, residues 274-569); made in house; host or cells: E. coli BL21 (DE3)
Method: as §5, §2

AMPK-γ2 CBS1-4 (R531G) = molecular target: T11, AMPK-γ2 CBS1-4 (R531G) (Homo sapiens, UniProt Q9UGJ0, R531G); assay: Filter binding assay, GST-CBS domain fusion; conditions: for Kd: two site Hill plot model, read-out: B0.5
T11 construct: all four CBS domains (CBS1-4, residues 274-569); made in house; host or cells: E. coli BL21 (DE3)
Method: as §5, §2

AMPK-γ2 CBS1-4 (T400N) = molecular target: T12, AMPK-γ2 CBS1-4 (T400N) (Homo sapiens, UniProt Q9UGJ0, T400N); assay: Filter binding assay, GST-CBS domain fusion; conditions: for Kd: two site Hill plot model, read-out: B0.5
T12 construct: all four CBS domains (CBS1-4, residues 274-569); made in house; host or cells: E. coli BL21 (DE3)
Method: as §5, §2

IMPDH2 CBS1-2 (WT) = molecular target: T13, IMPDH2 CBS1-2 (WT) (Homo sapiens, UniProt P12268); assay: Filter binding assay, isolated CBS domain pair; conditions: single-site model
T13 construct: DNAs encoding residues 112-232 or the full-length protein (1-514) were amplified; His tag (pHAT20 vector); made in house; host or cells: E. coli
Source text: To examine whether binding of adenine nucleotides is a general function for CBS domains, or is specific to the γ subunits of AMPK, IMP dehydrogenase (IMPDH) was also studied. Retinitis pigmentosa can be caused by an R224P mutation in the second CBS domain of the IMPDH1 isoform (27). However, the IMPDH2 isoform is 84% identical in amino acid sequence with IMPDH1, and the arginine mutated in retinitis pigmentosa is conserved. Because the IMPDH2 isoform is ubiquitously expressed and a suitable cDNA to use as a template for PCR was more readily available, DNA encoding the single pair of CBS domains from human IMPDH2 was cloned, an R224P mutation was created and expressed both the wild type and the mutant as His-tagged proteins in E. coli.
For IMPDH2, DNAs encoding residues 112-232 or the full-length protein (1-514) were amplified using human liver cDNA (Clontech) as template, and cloned into pHAT20 (Clontech) using 5′-AgeI and 3′-KpnI sites added to the primers. For the other constructs, DNAs encoding residues 582-840 of CLC2, or 416-551 of cystathionine â-synthase, were amplified using human liver cDNA as template, and cloned into pGEX-KG as above using 5′-BamHI and 3′-XhoI sites added to the primers. All mutations were created using the Stratagene QuikChange Site-directed Mutagenesis system.
The IMPDH2 constructs were His-tagged and were purified on chelating-Sepharose (Pharmacia) charged with 50 mM CoCl2 according to manufacturer's instructions.
Various concentrations of [^14C]-AMP, [γ^32P] […] Reactions were stopped by spotting 10 ìl onto a Millipore MF Filter Membrane disc and rapidly washing under high vacuum with 1 ml of ice-cold TBS. Radioactivity was determined on the filters by scintillation counting. Non-specific binding (which was trivial) was determined by performing the assay with GST as a control, and was subtracted. […] Data were fitted to the binding models given in the text, using GraphPad Prism 3. […]

T11 sequence (Q9UGJ0 274-569 R531G): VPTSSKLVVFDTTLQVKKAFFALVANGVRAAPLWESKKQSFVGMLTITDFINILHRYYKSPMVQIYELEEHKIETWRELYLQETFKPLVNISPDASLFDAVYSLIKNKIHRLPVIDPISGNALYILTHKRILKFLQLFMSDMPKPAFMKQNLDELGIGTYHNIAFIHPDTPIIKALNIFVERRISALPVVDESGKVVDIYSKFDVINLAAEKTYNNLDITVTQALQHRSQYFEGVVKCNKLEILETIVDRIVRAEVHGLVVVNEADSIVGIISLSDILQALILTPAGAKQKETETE
T9 sequence (Q9UGJ0 with tags, fused parts or gaps INS350L): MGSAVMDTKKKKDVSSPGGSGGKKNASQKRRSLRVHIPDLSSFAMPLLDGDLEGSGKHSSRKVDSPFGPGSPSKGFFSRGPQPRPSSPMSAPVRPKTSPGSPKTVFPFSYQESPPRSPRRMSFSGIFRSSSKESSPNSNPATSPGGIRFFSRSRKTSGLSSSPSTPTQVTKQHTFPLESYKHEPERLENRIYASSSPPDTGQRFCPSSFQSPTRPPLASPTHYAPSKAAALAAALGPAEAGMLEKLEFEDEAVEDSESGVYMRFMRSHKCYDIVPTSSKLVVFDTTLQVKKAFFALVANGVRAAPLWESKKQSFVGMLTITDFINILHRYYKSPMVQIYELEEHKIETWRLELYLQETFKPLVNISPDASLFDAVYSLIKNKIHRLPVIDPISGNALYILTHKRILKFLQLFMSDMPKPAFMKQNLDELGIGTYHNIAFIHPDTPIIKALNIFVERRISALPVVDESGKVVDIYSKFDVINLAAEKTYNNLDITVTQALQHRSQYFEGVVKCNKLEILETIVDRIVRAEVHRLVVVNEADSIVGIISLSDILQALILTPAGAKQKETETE
T6 sequence (Q9UGJ0 430-556 R531G): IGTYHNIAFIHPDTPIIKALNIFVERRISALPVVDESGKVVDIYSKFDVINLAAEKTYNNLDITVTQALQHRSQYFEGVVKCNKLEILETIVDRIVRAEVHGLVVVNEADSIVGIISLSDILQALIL
T12 sequence (Q9UGJ0 274-569 T400N): as the sequence (Q9UGJ0 274-569 R531G) above, with T127N, G258R counted along it
T1 sequence (Q9UGJ0 274-410 R302Q): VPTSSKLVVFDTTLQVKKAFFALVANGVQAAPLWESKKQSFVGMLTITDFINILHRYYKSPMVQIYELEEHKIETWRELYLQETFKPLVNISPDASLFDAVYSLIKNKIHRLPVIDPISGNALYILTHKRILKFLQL
T8 sequence (Q9UGJ0 274-569 H383R): as the sequence (Q9UGJ0 274-569 R531G) above, with H110R, G258R counted along it
T10 sequence (Q9UGJ0 274-569 R302Q): as the sequence (Q9UGJ0 274-569 R531G) above, with R29Q, G258R counted along it
T4 sequence (Q9UGJ0 274-410 T400N): as the sequence (Q9UGJ0 274-410 R302Q) above, with Q29R, T127N counted along it
T7 sequence (Q9UGJ0 274-569): as the sequence (Q9UGJ0 274-569 R531G) above, with G258R counted along it
T2 sequence (Q9UGJ0 274-410 H383R): as the sequence (Q9UGJ0 274-410 R302Q) above, with Q29R, H110R counted along it
T5 sequence (Q9UGJ0 430-556): as the sequence (Q9UGJ0 430-556 R531G) above, with G102R counted along it
T3 sequence (Q9UGJ0 with tags, fused parts or gaps INS350L): as the sequence (Q9UGJ0 with tags, fused parts or gaps INS350L) above
T13 sequence (P12268 112-232): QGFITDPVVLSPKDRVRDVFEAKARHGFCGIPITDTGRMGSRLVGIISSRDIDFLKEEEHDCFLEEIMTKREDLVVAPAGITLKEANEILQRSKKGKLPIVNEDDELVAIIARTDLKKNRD

Row | Structure (SMILES) | Kd (AMPK-γ2 CBS1-2 (R302Q)) [µM] | Kd (AMPK-γ2 CBS1-2 (H383R)) [µM] | Kd (AMPK-γ2 CBS1-2 (Lins)) [µM] | Kd (AMPK-γ2 CBS1-2 (T400N)) [µM] | Kd (AMPK-γ2 CBS3-4 (WT)) [µM] | Kd (AMPK-γ2 CBS3-4 (R531G)) [µM] | h (Hill coefficient) (AMPK-γ2 CBS1-4 (WT)) | Kd (AMPK-γ2 CBS1-4 (WT)) [µM] | h (Hill coefficient) (AMPK-γ2 CBS1-4 (H383R)) | Kd (AMPK-γ2 CBS1-4 (H383R)) [µM] | h (Hill coefficient) (AMPK-γ2 CBS1-4 (Lins)) | Kd (AMPK-γ2 CBS1-4 (Lins)) [µM] | h (Hill coefficient) (AMPK-γ2 CBS1-4 (R302Q)) | Kd (AMPK-γ2 CBS1-4 (R302Q)) [µM] | h (Hill coefficient) (AMPK-γ2 CBS1-4 (R531G)) | Kd (AMPK-γ2 CBS1-4 (R531G)) [µM] | h (Hill coefficient) (AMPK-γ2 CBS1-4 (T400N)) | Kd (AMPK-γ2 CBS1-4 (T400N)) [µM] | Kd (IMPDH2 CBS1-2 (WT)) [µM] | also measured
1 | Nc1ncnc2c1ncn2[C@@H]1O[C@H](COP(=O)(O)OP(=O)(O)OP(=O)(O)O)[C@@H](O)[C@H]1O [ATP] | 468 ± 86 | 1570 ± 140 | 202 ± 22 | 952 ± 55 | 403 ± 16 | 2050 ± 150 | 2.2 and 2.2 ± 0.2 | 257 ± 14 | 2.4 ± 0.2 | 1470 ± 55 | 1.8 ± 0.2 | 335 ± 28 | 1.3 and 1.3 ± 0.2 | 193 ± 25 | 2.7 ± 0.5 | 2550 ± 230 | 1.7 ± 0.2 | 2000 ± 160 | 54 | 
2 | Nc1ncnc2c1ncn2[C@@H]1O[C@H](COP(=O)(O)O)[C@@H](O)[C@H]1O [AMP, adenosine monophosphate] | 303 ± 42 | 1500 ± 210 | 63 ± 7 | 556 ± 56 | 104 ± 10 | 1570 ± 110 | 2.2 ± 0.1 | 61 | 1.8 ± 0.2 | 725 ± 36 | 1.8 ± 0.1 | 130 ± 4 | 1.9 ± 0.2 | 158 ± 9 | 1.6 ± 0.2 | 2800 ± 220 | 1.8 ± 0.1 | 1360 ± 47 | 437 ± 53 | increase in Kd relative to wild type (AMPK-γ2 CBS1-2 (R302Q)): 5.7 fold and 6 fold; increase in Kd relative to wild type (AMPK-γ2 CBS1-2 (H383R)): 28 fold; increase in Kd relative to wild type (AMPK-γ2 CBS1-2 (T400N)): 10 fold; increase in Kd relative to wild type (AMPK-γ2 CBS3-4 (R531G)): 15 fold; increase in B0.5 relative to wild type (AMPK-γ2 CBS1-4 (H383R)): 12 fold; change in B0.5 relative to wild type (AMPK-γ2 CBS1-4 (R302Q)): 2.6 fold; increase in B0.5 relative to wild type (AMPK-γ2 CBS1-4 (R531G)): 46 fold; increase in B0.5 relative to wild type (AMPK-γ2 CBS1-4 (T400N)): 22 fold
